Assay results as given in the supplement of paper PMC10477900.

What was measured:
HCT116 [1] = assay: viability inhibition vs untreated; higher = more cytotoxic; settings: 72 h
HCT116 [2] = settings: 72 h
Method: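 HCT116 control and MTA1-KO (CRISPR) HCT116 cells were seeded in 384-well plates (800 cells/well), treated 16 h later with 237 metabolism-related anticancer drugs at five doses (10 uM, 2 uM, 400 nM, 80 nM, 16 nM) for 72 h, two replicates; viability by CCK8. Values are % inhibition of viability relative to untreated cells, plus fitted IC50.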

## Cc1ccccc1C(C(=O)NC1CCCCC1)N(C(=O)Cn1ccnc1C)c1cccc(F)c1 (stereo not given) [AGI5198]
HCT116 [1]; genotype: MTA1-KO, 16 nM
  viability inhibition: 7.58%
HCT116 [1]; genotype: MTA1-KO, 80 nM
  viability inhibition: 7.91%
HCT116 [1]; genotype: MTA1-KO, 400 nM
  viability inhibition: 5.76%
HCT116 [1]; genotype: MTA1-KO, 2000 nM
  viability inhibition: 8.57%
HCT116 [1]; genotype: MTA1-KO, 10000 nM
  viability inhibition: 37.4%
HCT116 [1]; genotype: control, 16 nM
  viability inhibition: -3.24%
HCT116 [1]; genotype: control, 80 nM
  viability inhibition: -17.7%
HCT116 [1]; genotype: control, 400 nM
  viability inhibition: -10.7%
HCT116 [1]; genotype: control, 2000 nM
  viability inhibition: -12.3%
HCT116 [1]; genotype: control, 10000 nM
  viability inhibition: 2.37%
HCT116 [2]; genotype: MTA1-KO
  IC50: > 10 µM
HCT116 [2]; genotype: control
  IC50: > 10 µM

## O=C(Nc1cccc(C(F)(F)F)c1)Nc1cc(S(=O)(=O)NC2CC2)ccc1-c1ccsc1 [AGI6780]
HCT116 [1]; genotype: MTA1-KO, 16 nM
  viability inhibition: 4.84%
HCT116 [1]; genotype: MTA1-KO, 80 nM
  viability inhibition: -6.61%
HCT116 [1]; genotype: MTA1-KO, 400 nM
  viability inhibition: 9.84%
HCT116 [1]; genotype: MTA1-KO, 2000 nM
  viability inhibition: 15.6%
HCT116 [1]; genotype: MTA1-KO, 10000 nM
  viability inhibition: 49.9%
HCT116 [1]; genotype: control, 16 nM
  viability inhibition: 13.6%
HCT116 [1]; genotype: control, 80 nM
  viability inhibition: 18.2%
HCT116 [1]; genotype: control, 400 nM
  viability inhibition: 3.86%
HCT116 [1]; genotype: control, 2000 nM
  viability inhibition: 16.8%
HCT116 [1]; genotype: control, 10000 nM
  viability inhibition: 22.5%
HCT116 [2]; genotype: MTA1-KO
  IC50: > 10 µM
HCT116 [2]; genotype: control
  IC50: > 10 µM

## NC(=O)c1ncn([C@@H]2O[C@H](CO)[C@@H](O)[C@H]2O)c1N [AICAR (Acadesine)]
HCT116 [1]; genotype: MTA1-KO, 16 nM
  viability inhibition: -0.376%
HCT116 [1]; genotype: MTA1-KO, 80 nM
  viability inhibition: 0.906%
HCT116 [1]; genotype: MTA1-KO, 400 nM
  viability inhibition: -7.18%
HCT116 [1]; genotype: MTA1-KO, 2000 nM
  viability inhibition: -5.56%
HCT116 [1]; genotype: MTA1-KO, 10000 nM
  viability inhibition: 6.99%
HCT116 [1]; genotype: control, 16 nM
  viability inhibition: -3.52%
HCT116 [1]; genotype: control, 80 nM
  viability inhibition: -3.58%
HCT116 [1]; genotype: control, 400 nM
  viability inhibition: -3.52%
HCT116 [1]; genotype: control, 2000 nM
  viability inhibition: -4.22%
HCT116 [1]; genotype: control, 10000 nM
  viability inhibition: 37.8%
HCT116 [2]; genotype: MTA1-KO
  IC50: > 10 µM
HCT116 [2]; genotype: control
  IC50: > 10 µM

## CC[C@H](CC#N)OC(=O)N[C@@H](C)c1cccc(NC(=O)Nc2ccc(-c3cnco3)c(OC)c2)c1 [AVN944]
HCT116 [1]; genotype: MTA1-KO, 16 nM
  viability inhibition: 5.16%
HCT116 [1]; genotype: MTA1-KO, 80 nM
  viability inhibition: 4.61%
HCT116 [1]; genotype: MTA1-KO, 400 nM
  viability inhibition: 58.7%
HCT116 [1]; genotype: MTA1-KO, 2000 nM
  viability inhibition: 80.9%
HCT116 [1]; genotype: MTA1-KO, 10000 nM
  viability inhibition: 93.7%
HCT116 [1]; genotype: control, 16 nM
  viability inhibition: -0.119%
HCT116 [1]; genotype: control, 80 nM
  viability inhibition: 29.5%
HCT116 [1]; genotype: control, 400 nM
  viability inhibition: 75.2%
HCT116 [1]; genotype: control, 2000 nM
  viability inhibition: 92.9%
HCT116 [1]; genotype: control, 10000 nM
  viability inhibition: 96.3%
HCT116 [2]; genotype: MTA1-KO
  IC50: 0.311 µM
HCT116 [2]; genotype: control
  IC50: 0.131 µM

## Cc1[nH]nc(C(F)(F)F)c1Cc1sc2c(c1C(=O)N1C[C@](C)(O)CO1)c(=O)n(C)c(=O)n2C(C)C [AZD3965]
HCT116 [1]; genotype: MTA1-KO, 16 nM
  viability inhibition: -7.19%
HCT116 [1]; genotype: MTA1-KO, 80 nM
  viability inhibition: 25.1%
HCT116 [1]; genotype: MTA1-KO, 400 nM
  viability inhibition: 22.9%
HCT116 [1]; genotype: MTA1-KO, 2000 nM
  viability inhibition: 31.7%
HCT116 [1]; genotype: MTA1-KO, 10000 nM
  viability inhibition: 47.6%
HCT116 [1]; genotype: control, 16 nM
  viability inhibition: 0.727%
HCT116 [1]; genotype: control, 80 nM
  viability inhibition: 24.8%
HCT116 [1]; genotype: control, 400 nM
  viability inhibition: 21.6%
HCT116 [1]; genotype: control, 2000 nM
  viability inhibition: 40.3%
HCT116 [1]; genotype: control, 10000 nM
  viability inhibition: 45.9%
HCT116 [2]; genotype: MTA1-KO
  IC50: 0.576 µM
HCT116 [2]; genotype: control
  IC50: 0.338 µM

## COc1ccc(-c2ccc3c(N4CCOC[C@@H]4C)nc(N4CCOC[C@@H]4C)nc3n2)cc1CO [AZD8055]
HCT116 [1]; genotype: MTA1-KO, 16 nM
  viability inhibition: -21.9%
HCT116 [1]; genotype: MTA1-KO, 80 nM
  viability inhibition: -16.3%
HCT116 [1]; genotype: MTA1-KO, 400 nM
  viability inhibition: 15.5%
HCT116 [1]; genotype: MTA1-KO, 2000 nM
  viability inhibition: 41.3%
HCT116 [1]; genotype: MTA1-KO, 10000 nM
  viability inhibition: 67.5%
HCT116 [1]; genotype: control, 16 nM
  viability inhibition: 0.243%
HCT116 [1]; genotype: control, 80 nM
  viability inhibition: 13.1%
HCT116 [1]; genotype: control, 400 nM
  viability inhibition: 36.1%
HCT116 [1]; genotype: control, 2000 nM
  viability inhibition: 46.1%
HCT116 [1]; genotype: control, 10000 nM
  viability inhibition: 37.6%
HCT116 [2]; genotype: MTA1-KO
  IC50: 0.843 µM
HCT116 [2]; genotype: control
  IC50: > 10 µM

## COCCNC(=O)Nc1ccc2nc(-c3cccs3)c(-c3cccs3)nc2c1 [Ac-CoA Synthase Inhibitor1]
HCT116 [1]; genotype: MTA1-KO, 16 nM
  viability inhibition: -8.17%
HCT116 [1]; genotype: MTA1-KO, 80 nM
  viability inhibition: 14.9%
HCT116 [1]; genotype: MTA1-KO, 400 nM
  viability inhibition: 15%
HCT116 [1]; genotype: MTA1-KO, 2000 nM
  viability inhibition: 10.1%
HCT116 [1]; genotype: MTA1-KO, 10000 nM
  viability inhibition: 6.2%
HCT116 [1]; genotype: control, 16 nM
  viability inhibition: 3.53%
HCT116 [1]; genotype: control, 80 nM
  viability inhibition: 9.39%
HCT116 [1]; genotype: control, 400 nM
  viability inhibition: -0.277%
HCT116 [1]; genotype: control, 2000 nM
  viability inhibition: -10.1%
HCT116 [1]; genotype: control, 10000 nM
  viability inhibition: 8.5%
HCT116 [2]; genotype: MTA1-KO
  IC50: > 10 µM
HCT116 [2]; genotype: control
  IC50: > 10 µM

## CC(=O)Nc1nnc(S(N)(=O)=O)s1 [Acetazolamide]
HCT116 [1]; genotype: MTA1-KO, 16 nM
  viability inhibition: -8.41%
HCT116 [1]; genotype: MTA1-KO, 80 nM
  viability inhibition: -9.41%
HCT116 [1]; genotype: MTA1-KO, 400 nM
  viability inhibition: -15.4%
HCT116 [1]; genotype: MTA1-KO, 2000 nM
  viability inhibition: -8.8%
HCT116 [1]; genotype: MTA1-KO, 10000 nM
  viability inhibition: 6.99%
HCT116 [1]; genotype: control, 16 nM
  viability inhibition: -4.74%
HCT116 [1]; genotype: control, 80 nM
  viability inhibition: -13.5%
HCT116 [1]; genotype: control, 400 nM
  viability inhibition: -4.54%
HCT116 [1]; genotype: control, 2000 nM
  viability inhibition: -3.32%
HCT116 [1]; genotype: control, 10000 nM
  viability inhibition: -0.433%
HCT116 [2]; genotype: MTA1-KO
  IC50: > 10 µM
HCT116 [2]; genotype: control
  IC50: > 10 µM

## Nc1ncnc2c1ncn2[C@@H]1O[C@H](COP(=O)(O)O)[C@@H](O)[C@H]1O [Adenosine 5'-monophosphate monohydrate]
HCT116 [1]; genotype: MTA1-KO, 16 nM
  viability inhibition: -22.7%
HCT116 [1]; genotype: MTA1-KO, 80 nM
  viability inhibition: -25.1%
HCT116 [1]; genotype: MTA1-KO, 400 nM
  viability inhibition: -20.2%
HCT116 [1]; genotype: MTA1-KO, 2000 nM
  viability inhibition: -18.3%
HCT116 [1]; genotype: MTA1-KO, 10000 nM
  viability inhibition: -15.5%
HCT116 [1]; genotype: control, 16 nM
  viability inhibition: 14.8%
HCT116 [1]; genotype: control, 80 nM
  viability inhibition: 5.2%
HCT116 [1]; genotype: control, 400 nM
  viability inhibition: 12.1%
HCT116 [1]; genotype: control, 2000 nM
  viability inhibition: 10.3%
HCT116 [1]; genotype: control, 10000 nM
  viability inhibition: 11.9%
HCT116 [2]; genotype: MTA1-KO
  IC50: > 10 µM
HCT116 [2]; genotype: control
  IC50: > 10 µM

## CCC(C)(C)C(=O)O[C@H]1C[C@@H](C)C=C2C=C[C@H](C)[C@H](CC[C@@H]3C[C@@H](O)CC(=O)O3)[C@H]21 [Simvastatin]
HCT116 [2]; genotype: MTA1-KO
  IC50: > 10 µM
HCT116 [2]; genotype: control
  IC50: > 10 µM
